Legend:
p42/44^MAPK [1] = assay: p42/44MAPK activation in HepG2-ΔRaf-1:ER cells; assay type: cell-based, human; settings: 1 μM ICI 182,780
Method: (§1) Cells were either left untreated or stimulated with 1 μM ICI 182,780 for 1.5 h, and then treated with either anisomycin (50 ng/ml) or IL-1β(5 ng/ml) for 30 min. Cells were then lysed in SDS sample buffer, and equal amounts of whole cell lysates were separated by SDS-PAGE in 10% gels. Activated MAPKs levels were analyzed by blotting using anti-phospho-p42/44^MAPK, and anti-phospho-p38^MAPK. Protein levels were analyzed by using phosphorylation-independent anti-p42/44^MAPK following electrotransfer of total proteins onto nitrocellulose. Similar results were obtained in three separate experiments. […]
(§2) Proteins were fractionated by SDS-PAGE with an 10% acrylamide separation gel, and the separated proteins were transferred to nitrocellulose, and processed as described previously (43, 44). […] After further washing in Tris/NaCl/Tween-20, membranes were incubated for 1 h with horseradish peroxidase-linked anti-IgG secondary antibody (Bio-Rad, diluted 1:5000), and immunoreactive proteins were detected by ECL as described by the supplier. Quantitative analyses of protein levels were performed by densitometric scanning of the autoradiograms, and are representative of 3 or more independent experiments.
(§3) Whether inhibition or activation of p42/44^MAPK regulates p38^MAPK activation by stress-inducers was determined next. […]

p38^MAPK [2] = assay: p38MAPK activation by stress-inducers in HepG2-ΔRaf-1:ER cells; assay type: cell-based, human; settings: 1 μM ICI 182,780 1.5 h, then anisomycin (50 ng/ml) or IL-1β (5 ng/ml) 30 min
Method: as §1, §2, §3

LDL receptor expression [3] = assay: Northern blotting of LDL receptor mRNA in HepG2 cells; assay type: cell-based, human; settings: HepG2 cells; for induction of LDL receptor expression (Northern blotting): inhibitor alone, 0.5% FBS; for effect on SB202190-induced LDL receptor expression: inhibitor added 30 min before SB202190 (2.5 μM, 4 h)
Method: 5×10^5 cells were plated on day 0. On day 2, cells were refed with fresh medium. On day. 4, cells were either left untreated (0) or treated for the indicated times with SB202190 (2.5 μM) in medium containing 0.5% FBS. Total RNA was isolated and subjected to Northern blotting to determine amounts of LDL receptor, squalene synthase (SS) genes, and actin mRNAs. Autoradiographs were quantitated densitometrically. LDL receptor mRNA levels were normalized to actin mRNA levels. In the bottom panel, results are expressed as the fold induction by SB 202190 as compared with uninduced cells (set at 1). Values obtained are the averages of three separate experiments, with the standard deviations shown.
HepG2 cells were grown as described in FIG. 1. On day 4, medium was changed to either 10% LPDS alone or 10% LPDS supplemented with 25-hydroxycholesterol (2 μg/ml) and cholesterol (10 μg/ml), and after 2 hours, cells were treated with indicated concentrations of SB202190 for an additional 4 hours. Levels of LDL receptor and SS mRNAs were determined by Northern analysis and densitometry as described previously. RNA levels were normalized by comparison with levels of actin. Values obtained from cells cultured in the absence of sterols and SB202190 were set at 1. Values shown are the average of two different experiments.
Total RNA was subjected to Northern blot analysis, and the filter was hybridized with a ^32P-labeled LDL receptor probe. Values shown are the averages of two different experiments. […] Values obtained from the control cells grown in the absence of SB202190 or PD98059 were arbitrarily set at 1.
HepG2 cells were grown as described in FIG. 1. On day 4, cells cultured for 1 h in 0.5% FBS containing different amounts of cycloheximide (1 μg/ml, 2 μg/ml, and 5 μg/ml) were then incubated with SB202190 (2.5 μM) for an additional 4 h. LDL receptor and actin mRNA levels were analyzed by Northern blotting of total RNA. Values obtained from cells with no additions were arbitrarily set at 1. […] Results shown are representative of one experiment.
In FIG. 8A, HepG2 cells were pretreated for 30 minutes with the indicated concentration of the above inhibitors and then treated with […] SB202190 for an additional 4 hours. Total RNA was subjected to Northern blotting for measurement of LDL receptor mRNA levels.
(§4) Human hepatoma cell line HepG2 and its derivative HepG2-ΔRaf-1:ER cell line that stably expresses the ΔRaf-1:ER chimera were maintained as monolayer cultures in a humidified 5% CO2 atmosphere at 37° C. in Eagle's minimum essential medium (EMEM) (Bio Whittaker, Md.) supplemented with 10% fetal bovine serum (FBS) (Life Technologies Inc.), 2 mM L-glutamine, 20 units/ml penicillin and 20 μg/ml streptomycin sulphate.
Total RNA was isolated using TRIzol, and Northern blotting was done essentially as described earlier (43, 44). Briefly, 20 μg total cellular RNA was fractionated on 1% formaldehyde agarose gel and transferred to Zeta Probe membrane by capillary blotting. RNA blots were hybridized with LDL receptor and squalene synthase specific single-stranded M13 probes labeled with [α-^32P ]dCTP. Hybridized filters were washed and exposed to Kodak X-ray film. The relative intensities of specific bands were determined densitometrically within the linear range of the film on a model 300A laser densitometer (Molecular Dyanamics, Calif.) with Image Quant software. LDL receptor mRNA was normalized to squalene synthase (SS) (included in this study) or to α-actin (data not shown) mRNA level, and data for each point were plotted as the percentage of LDL receptor mRNA as compared to controls. […]

[4] = tested on: p38^MAPK α- and β-isoforms; settings: cited from earlier work
p42/44^MAPK [5] = assay: Immunoblot of phospho-p42/44MAPK in HepG2 cells; assay type: cell-based, human; settings: inhibitor added 30 min before SB202190 (2.5 μM, 4 h)
Method: (§5) 2×10^5 cells were grown and treated as described in FIG. 1. After the indicated times, equal amounts of cell lysates were blotted with anti-phospho-p42/44^MAPK antibody, phosphorylation-independent p42/44^MAPK antibody, anti-phospho p46/54^JNK antibody, anti-phospho-MEK-1/2, or phosphorylation-independent MKP-1.
HepG2 cells were cultured in the absence or presence of 1 μM staurosporine or 5 μM PD98059 for 30 min. SB202190 (2.5 μM) was then added to the cells for 4 h, cell lysate was subjected to immunoblotting to measure the phosphorylation levels of p42/44^MAPK and MEK-1/2.
as §4
Proteins were fractionated by SDS-PAGE with an 10% acrylamide separation gel, and the separated proteins were transferred to nitrocellulose, and processed as described previously (43, 44). Briefly, membranes were incubated in 20 mM Tris-HCl, pH 7.6, 137 mM NaCl, 0.2% v/v Tween-20 (Tris/NaCl/Tween-20) with 5% w/v non-fat dried milk for 1 h, washed in Tris/NaCl/Tween-20 (3×5 min), and incubated for 1 h with primary antibody in Tris/NaCl/Tween-20 containing 1% milk at room temperature for non phospho-specific antibodies and overnight at 4° C. for phospho-specific antibodies. The following dilutions were used for individual antibodies against different proteins: p42/44^MAPK (1:1600); phosphop-42/44^MAPK (1:1000); phosphop-46/54^JNK (1:1000); phospho-p38^MAPK (1:1600); phospho-MEK-1/2 (1:1000); MKP-1 (1:1500). After further washing in Tris/NaCl/Tween-20, membranes were incubated for 1 h with horseradish peroxidase-linked anti-IgG secondary antibody (Bio-Rad, diluted 1:5000), and immunoreactive proteins were detected by ECL as described by the supplier. Quantitative analyses of protein levels were performed by densitometric scanning of the autoradiograms, and are representative of 3 or more independent experiments.
HepG2 cells were incubated with SB202190, and the activity of p42/44^MAPK and p46/54^JNK was determined by immunoblot analysis with antibodies that recognized the activated phosphorylated forms of these kinases in cell extracts obtained at different times.

MEK-1/2 = assay: Immunoblot of phospho-MEK-1/2 in HepG2 cells; assay type: cell-based, human; settings: 1 μM staurosporine 30 min, then SB202190 (2.5 μM) 4 h
Method: as §5
HepG2 cells were cultured in the absence or presence of 1 μM staurosporine or 5 μM PD98059 for 30 min. SB202190 (2.5 μM) was then added to the cells for 4 h, cell lysate was subjected to immunoblotting to measure the phosphorylation levels of p42/44^MAPK and MEK-1/2. […]
as §2

LDL receptor expression [6] = assay: Northern blotting of LDL receptor mRNA in HeLa cells; assay type: cell-based; settings: PD98059 (5 μM) added 30 min before SB202190 (2.5 μM) 4 h
Method: PD98059 was added 30 min prior to addition of SB202190. After the indicated times, total RNA was isolated and subjected to Northern blotting. […] Total RNA was isolated using TRIzol, and Northern blotting was done essentially as described earlier (43, 44). Briefly, 20 μg total cellular RNA was fractionated on 1% formaldehyde agarose gel and transferred to Zeta Probe membrane by capillary blotting. RNA blots were hybridized with LDL receptor and squalene synthase specific single-stranded M13 probes labeled with [α-^32P ]dCTP. Hybridized filters were washed and exposed to Kodak X-ray film. The relative intensities of specific bands were determined densitometrically within the linear range of the film on a model 300A laser densitometer (Molecular […], Calif.) with Image Quant software. LDL receptor mRNA was normalized to squalene synthase (SS) (included in this study) or to α-actin (data not shown) mRNA level, and data for each point were plotted as the percentage of LDL receptor mRNA as compared to controls.

other MAPKs = assay: Activity of other MAPKs on inhibition of p42/44MAPK; assay type: cell-based; settings: inhibition of p42/44MAPK with PD98059; data not shown
p38^MAPK [7] = settings: concentrations that completely blocked p42/44MAPK activation by MEK-1/2; cited from earlier work

Molecule: C[C@]12CC[C@@H]3c4ccc(O)cc4C[C@@H](CCCCCCCCC[S+]([O-])CCCC(F)(F)C(F)(F)F)[C@H]3[C@@H]1CC[C@@H]2O (stereo partly shown) [ICI 182780]
- stimulation of p42/44MAPK (p42/44^MAPK [1]): stimulated p42/44^MAPK within minutes
- effect on p38MAPK activation by anisomycin or IL-1β (p38^MAPK [2]): no significant effects

Molecule: C[C@@H]1C[C@@H]([C@H](O)CC2CC(=O)NC(=O)C2)C(=O)[C@@H](C)C1 [cycloheximide]
- effect of inhibition of translation on SB202190-induced LDL receptor expression (LDL receptor expression [3]; cycloheximide 1, 2, 5 μg/ml for 1 h, then SB202190 (2.5 μM) 4 h): no effect on LDL receptor expression

Molecule: C[S+]([O-])c1ccc(-c2nc(-c3ccc(F)cc3)c(-c3ccncc3)[nH]2)cc1 (stereo not shown) [SB203580, 4-(4-Fluorophenyl)-2-(4-methylsulfinylphenyl)-5-(4-pyridyl) 1H-imidazole]
- most effective concentration for LDL receptor induction (LDL receptor expression [3]): 10 µM
- induction of LDL receptor expression (Northern blotting) (LDL receptor expression [3]): also induced LDL receptor expression
- inhibition of p38MAPK α- and β-isoforms [4]: selectively inhibit both p38^MAPK α- and β-isoforms

Molecule: Cn1c2ccccc2c2c3c(c4c5ccccc5n(CCC#N)c4c21)CNC3=O [Go6976]
- effect on SB202190-induced LDL receptor expression (LDL receptor expression [3]): has no effect

Molecule: CN[C@@H]1C[C@H]2O[C@@](C)([C@@H]1OC)n1c3ccccc3c3c4c(c5c6ccccc6n2c5c31)C(=O)NC4 [staurosporine]
- effect on SB202190-induced LDL receptor expression (LDL receptor expression [3]): completely prevented
- effect on SB202190-induced p42/44MAPK phosphorylation/activation (p42/44^MAPK [5]): blocked
- effect on SB202190-induced MEK-1/2 activation (MEK-1/2): blocked

Molecule: CCc1nc(-c2ccc(OC)cc2)[nH]c1-c1ccncc1 [SB202474]
- induction of LDL receptor expression (Northern blotting) (LDL receptor expression [3]): did not induce LDL receptor expression

Molecule: CN(C)CCCn1cc(C2=C(c3c[nH]c4ccccc34)C(=O)NC2=O)c2ccccc21 [Bis I]
- effect on SB202190-induced LDL receptor expression (LDL receptor expression [3]): has no effect

Molecule: COc1ccc2c(c1)c(CC(=O)O)c(C)n2C(=O)c1ccc(Cl)cc1 [indomethacin]
- effect on LDL receptor expression (LDL receptor expression [3]; 10 μM indomethacin): did not significantly alter LDL receptor expression

Molecule: calphostin C
- effect on SB202190-induced LDL receptor expression (LDL receptor expression [3]): has no effect

Molecule: COc1cccc(-c2cc(=O)c3ccccc3o2)c1N [PD98059, 2-(2′-amino-3′-methoxyphenyl) oxanaphthalen-4-one]
- effect on SB202190-induced LDL receptor expression (LDL receptor expression [3]): inhibited
- effect on SB202190-induced p42/44MAPK phosphorylation/activation (p42/44^MAPK [5]): inhibited
- effect on SB202190-induced LDL receptor expression in HeLa cells (LDL receptor expression [6]): blocked SB202190-induced LDL receptor expression
- effect on activity of other MAPKs (other MAPKs): has no effect on activity of other MAPKs
- effect on p38MAPK activation in response to IL-1β or TNF (p38^MAPK [7]): failed to block p38^MAPK activation
